Source: PubChem BioAssay (NCI)
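Briefly, cells in 96-well plates were exposed to five compound concentrations for 48 h, and endpoints were estimated by linear interpolation. At the TGI there is no net growth.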

Key:
Assay in all cases: NCI anticancer screen, dose series, 48 h
[1] = system: 786-0 renal
[2] = system: A498 renal
[3] = system: A549 NSCLC
[4] = system: ACHN renal
[5] = system: CAKI-1 renal
[6] = system: CCRF-CEM leukemia
[7] = system: COLO 205 colon
[8] = system: DU-145 prostate
[9] = system: EKVX NSCLC
[10] = system: HCC-2998 colon
[11] = system: HCT-116 colon
[12] = system: HCT-15 colon
[13] = system: HOP-62 NSCLC
[14] = system: HOP-92 NSCLC
[15] = system: HS 578T breast
[16] = system: HT29 colon
[17] = system: IGROV1 ovarian
[18] = system: K-562 leukemia
[19] = system: KM12 colon
[20] = system: LOX IMVI melanoma
[21] = system: M14 melanoma
[22] = system: MALME-3M melanoma
[23] = system: MCF7 breast
[24] = system: MDA-MB-231 breast
[25] = system: MDA-MB-435
[26] = system: MDA-N
[27] = system: MOLT-4 leukemia
[28] = system: NCI-H226 lung
[29] = system: NCI-H23 lung
[30] = system: NCI-H460 lung
[31] = system: NCI-H522 lung
[32] = system: NCI/ADR-RES ovarian
[33] = system: OVCAR-3 ovarian
[34] = system: OVCAR-4 ovarian
[35] = system: OVCAR-5 ovarian
[36] = system: OVCAR-8 ovarian
[37] = system: PC-3 prostate
[38] = system: RPMI-8226 leukemia
[39] = system: RXF 393 renal
[40] = system: SF-268 CNS
[41] = system: SF-295 CNS
[42] = system: SF-539 CNS
[43] = system: SK-MEL-2 melanoma
[44] = system: SK-MEL-28 melanoma
[45] = system: SK-MEL-5 melanoma
[46] = system: SK-OV-3 ovarian
[47] = system: SN12C renal
[48] = system: SNB-19 CNS
[49] = system: SNB-75 CNS
[50] = system: SR leukemia
[51] = system: SW-620 colon
[52] = system: T-47D breast
[53] = system: TK-10 renal
[54] = system: U251 CNS
[55] = system: UACC-257 melanoma
[56] = system: UACC-62 melanoma
[57] = system: UO-31 renal

## Cc1nc(Nc2ccc(Cl)cc2Cl)sc1C(=O)Nc1ccccc1
[1]
  TGI: > 100 µM
[2]
  TGI: > 100 µM
[3]
  TGI: > 100 µM
[4]
  TGI: > 100 µM
[5]
  TGI: > 100 µM
[6]
  TGI: > 100 µM
[7]
  TGI: > 100 µM
[8]
  TGI: > 100 µM
[9]
  TGI: > 100 µM
[10]
  TGI: > 100 µM
[11]
  TGI: > 100 µM
[12]
  TGI: > 100 µM
[13]
  TGI: > 100 µM
[14]
  TGI: > 100 µM
[15]
  TGI: > 100 µM
[16]
  TGI: > 100 µM
[17]
  TGI: > 100 µM
[18]
  TGI: > 100 µM
[19]
  TGI: > 100 µM
[20]
  TGI: > 100 µM
[21]
  TGI: > 100 µM
[22]
  TGI: > 100 µM
[23]
  TGI: > 100 µM
[24]
  TGI: > 100 µM
[25]
  TGI: > 100 µM
[26]
  TGI: > 100 µM
[27]
  TGI: > 100 µM
[28]
  TGI: 17.4 µM
[29]
  TGI: > 100 µM
[30]
  TGI: > 100 µM
[31]
  TGI: > 100 µM
[32]
  TGI: > 100 µM
[33]
  TGI: > 100 µM
[34]
  TGI: > 100 µM
[35]
  TGI: > 100 µM
[36]
  TGI: > 100 µM
[37]
  TGI: > 100 µM
[38]
  TGI: > 100 µM
[39]
  TGI: > 100 µM
[40]
  TGI: > 100 µM
[41]
  TGI: > 100 µM
[42]
  TGI: > 100 µM
[43]
  TGI: > 100 µM
[44]
  TGI: > 100 µM
[45]
  TGI: > 100 µM
[46]
  TGI: > 100 µM
[47]
  TGI: > 100 µM
[48]
  TGI: > 100 µM
[49]
  TGI: > 100 µM
[50]
  TGI: > 100 µM
[51]
  TGI: > 100 µM
[52]
  TGI: > 100 µM
[53]
  TGI: > 100 µM
[54]
  TGI: > 100 µM
[55]
  TGI: > 100 µM
[56]
  TGI: > 100 µM
[57]
  TGI: > 100 µM
